Laboratory results: the supplement of paper PMC5908809

Experiments:
[1] = system: normal NK cells expanded with K562-aAPC; assay: percent inhibition of viability; higher = more inhibition; conditions: 72 h, IL-2 2.5 ng/mL
Description: (§1)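 Drug sensitivity and resistance testing on K562-aAPC-expanded normal NK cells: 5 concentrations (10-fold steps over a 10,000-fold range), 72 h at 37 °C, viability by CellTiter-Glo normalised to DMSO and benzethonium chloride controls; DSS from the fitted curve.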

NKL (IL-2 2.5 ng/mL) [2] = assay: as above; conditions: 72 h
NK-92 (IL-2 2.5 ng/mL) [3] = assay: as above; conditions: 72 h
YT (IL-2 2.5 ng/mL) [4] = assay: as above; conditions: 72 h
[5] = system: normal primary NK cells, pool 1 (3 donors), resting (IL-2 0 ng/mL); assay: as above; conditions: 72 h
[6] = system: normal primary NK cells, pool 2 (3 donors) (IL-2 2.5 ng/mL); assay: as above; conditions: 72 h
KAI3 (IL-2 2.5 ng/mL) [7] = assay: as above; conditions: 72 h
[8] = system: normal primary NK cells, pool 1 (3 donors) (IL-2 2.5 ng/mL); assay: as above; conditions: 72 h
[9] = system: normal primary NK cells, pool 3 (3 donors) (IL-2 2.5 ng/mL); assay: as above; conditions: 72 h
IMC-1 (IL-2 20 ng/mL) [10] = assay: as above; conditions: 72 h
NK-YS (IL-2 2.5 ng/mL) [11] = assay: as above; conditions: 72 h
DERL-7 (IL-2 2.5 ng/mL) [12] = assay: as above; conditions: 72 h
SNK-6 (IL-2 2.5 ng/mL) [13] = assay: as above; conditions: 72 h
KHYG-1 (IL-2 2.5 ng/mL) [14] = assay: as above; conditions: 72 h
NKL (IL-2 2.5 ng/mL) [15] = assay: drug sensitivity score (DSS) (DSS units); higher = more sensitive; extreme values may be limits of the assay; conditions: 72 h
NK-92 (IL-2 2.5 ng/mL) [16] = assay: as above; conditions: 72 h
YT (IL-2 2.5 ng/mL) [17] = assay: as above; conditions: 72 h
[18] = system: normal primary NK cells, pool 1 (3 donors), resting (IL-2 0 ng/mL); assay: as above; conditions: 72 h
[19] = system: normal primary NK cells, pool 2 (3 donors) (IL-2 2.5 ng/mL); assay: as above; conditions: 72 h
KAI3 (IL-2 2.5 ng/mL) [20] = assay: as above; conditions: 72 h
[21] = system: normal primary NK cells, pool 1 (3 donors) (IL-2 2.5 ng/mL); assay: as above; conditions: 72 h
[22] = system: normal primary NK cells, pool 3 (3 donors) (IL-2 2.5 ng/mL); assay: as above; conditions: 72 h
IMC-1 (IL-2 20 ng/mL) [23] = assay: as above; conditions: 72 h
NK-YS (IL-2 2.5 ng/mL) [24] = assay: as above; conditions: 72 h
DERL-7 (IL-2 2.5 ng/mL) [25] = assay: as above; conditions: 72 h
SNK-6 (IL-2 2.5 ng/mL) [26] = assay: as above; conditions: 72 h
KHYG-1 (IL-2 2.5 ng/mL) [27] = assay: as above; conditions: 72 h
[28] = system: normal NK cells expanded with K562-aAPC; assay: as above; conditions: 72 h; IL-2 2.5 ng/mL
Description: as §1

O=C1CCC(N2C(=O)c3ccccc3C2=O)C(=O)N1 (configuration not stated) [Thalidomide] (max concentration tested 10000 nM)
percent inhibition of viability [%]
Conditions | 1 nM | 10 nM | 100 nM | 1000 nM | 10000 nM
DERL-7 (IL-2 2.5 ng/mL) [12] | -4.35 | 1.66 | 0.7 | -4.56 | -10.4
IMC-1 (IL-2 20 ng/mL) [10] | -2.34 | -2.83 | 3.91 | 5.3 | 12
KAI3 (IL-2 2.5 ng/mL) [7] | -9.63 | -11.1 | -3.59 | -3.95 | 14.6
KHYG-1 (IL-2 2.5 ng/mL) [14] | -4.12 | -6.62 | 0.67 | 6.18 | 10.3
NK-92 (IL-2 2.5 ng/mL) [3] | -15.9 | -8.74 | -9.71 | 7.78 | 12.7
NK-YS (IL-2 2.5 ng/mL) [11] | -5.98 | -8.88 | -3.38 | 8.1 | 15.2
NKL (IL-2 2.5 ng/mL) [2] | -18.5 | -7.52 | -3.52 | 13.7 | 11.1
SNK-6 (IL-2 2.5 ng/mL) [13] | -14.3 | 8.65 | -18.4 | -31.5 | -27.8
YT (IL-2 2.5 ng/mL) [4] | -9.26 | -7.23 | -5.25 | -0.15 | 26.5
[1] | -14.8 | -5.18 | -6.96 | 6.59 | 12.7
[5] | 6 | -5.13 | 20 | -1.84 | -5.2
[6] | -7.68 | -2.29 | 0.16 | 8.57 | 7.78
[8] | 0.86 | -2.62 | 18.8 | -1.53 | 5.13
[9] | -10.6 | -12.8 | -2.32 | 1.72 | 4.5

Conditions | drug sensitivity score
DERL-7 (IL-2 2.5 ng/mL) [25] | 0
IMC-1 (IL-2 20 ng/mL) [23] | 0.03
KAI3 (IL-2 2.5 ng/mL) [20] | 0.11
KHYG-1 (IL-2 2.5 ng/mL) [27] | 0.01
NK-92 (IL-2 2.5 ng/mL) [16] | 0.43
NK-YS (IL-2 2.5 ng/mL) [24] | 0.86
NKL (IL-2 2.5 ng/mL) [15] | 0.91
SNK-6 (IL-2 2.5 ng/mL) [26] | 0
YT (IL-2 2.5 ng/mL) [17] | 1.05
[18] | 0
[19] | 0
[21] | 0
[22] | 0
[28] | 0.4

CCOc1cc2ncc(C#N)c(Nc3ccc(F)c(Cl)c3)c2cc1NC(=O)/C=C/CN(C)C [Pelitinib] (max concentration tested 2500 nM)
percent inhibition of viability [%]
Conditions | 0.25 nM | 2.5 nM | 25 nM | 250 nM | 2500 nM
DERL-7 (IL-2 2.5 ng/mL) [12] | -4.83 | -5.06 | 2.43 | 41.3 | 99.9
IMC-1 (IL-2 20 ng/mL) [10] | -0.29 | 1.94 | 3.33 | -17.4 | 99.7
KAI3 (IL-2 2.5 ng/mL) [7] | -6.96 | -4.92 | 1.78 | 40.4 | 84.1
KHYG-1 (IL-2 2.5 ng/mL) [14] | 1.04 | 0.45 | 7.11 | 25.7 | 101
NK-92 (IL-2 2.5 ng/mL) [3] | -0.1 | -2.5 | 13 | 13.8 | 98.3
NK-YS (IL-2 2.5 ng/mL) [11] | 0.78 | -5.84 | 0.53 | -1.43 | 73.7
NKL (IL-2 2.5 ng/mL) [2] | -12.4 | -7.42 | -0.44 | 15.2 | 92.2
SNK-6 (IL-2 2.5 ng/mL) [13] | 29.9 | 30.9 | 23.3 | 32.9 | 95.6
YT (IL-2 2.5 ng/mL) [4] | 4.94 | 2.25 | 8.23 | 7.75 | 51.7
[1] | -1.17 | 1.75 | 2.79 | 36.6 | 99.5
[5] | 4.48 | -8.29 | 4.76 | 14.7 | 82.3
[6] | -10.8 | 5.08 | 7.69 | 43 | 91.3
[8] | 3.39 | -4.76 | 4.88 | 39 | 94.2
[9] | -8.11 | -2.18 | 2.55 | 19.3 | 94.4

Conditions | drug sensitivity score
DERL-7 (IL-2 2.5 ng/mL) [25] | 10.7
IMC-1 (IL-2 20 ng/mL) [23] | 4.58
KAI3 (IL-2 2.5 ng/mL) [20] | 9.6
KHYG-1 (IL-2 2.5 ng/mL) [27] | 9.44
NK-92 (IL-2 2.5 ng/mL) [16] | 7.76
NK-YS (IL-2 2.5 ng/mL) [24] | 3.95
NKL (IL-2 2.5 ng/mL) [15] | 7.63
SNK-6 (IL-2 2.5 ng/mL) [26] | 16.3
YT (IL-2 2.5 ng/mL) [17] | 4.06
[18] | 6.98
[19] | 10.1
[21] | 9.9
[22] | 8.33
[28] | 10.3

O=C1c2c(O)ccc(O)c2C(=O)c2c(NCCNCCO)ccc(NCCNCCO)c21 [Mitoxantrone] (max concentration tested 1000 nM)
percent inhibition of viability [%]
Conditions | 0.1 nM | 1 nM | 10 nM | 100 nM | 1000 nM
DERL-7 (IL-2 2.5 ng/mL) [12] | -0.69 | -3.99 | 7.25 | 45.4 | 81.1
IMC-1 (IL-2 20 ng/mL) [10] | -4.49 | -5.12 | 2.6 | 19.3 | 92.1
KAI3 (IL-2 2.5 ng/mL) [7] | -18.6 | -16.5 | -1.68 | 41.7 | 74.6
KHYG-1 (IL-2 2.5 ng/mL) [14] | -1.32 | 3.99 | 7.39 | 17.7 | 72.5
NK-92 (IL-2 2.5 ng/mL) [3] | -10.5 | -26.1 | -3.86 | 11.4 | 45.4
NK-YS (IL-2 2.5 ng/mL) [11] | -6.35 | -2.16 | 9.79 | 37.1 | 85.1
NKL (IL-2 2.5 ng/mL) [2] | -8.85 | 3.32 | 12 | 87 | 107
SNK-6 (IL-2 2.5 ng/mL) [13] | 15 | 22.1 | 31.1 | 20.5 | 73.1
YT (IL-2 2.5 ng/mL) [4] | -1.6 | 4.64 | 3.75 | -0.47 | 32.4
[1] | 1.76 | 1.15 | 1.38 | 19 | 62
[5] | -14 | -28.2 | -16.5 | 24.1 | 91.4
[6] | -14.3 | -3.15 | 3.94 | 9.38 | 53.6
[8] | 1.11 | -8.14 | 0.77 | -0.51 | 58.9
[9] | -18.6 | -1.63 | -2.35 | -0.69 | 45.1

Conditions | drug sensitivity score
DERL-7 (IL-2 2.5 ng/mL) [25] | 10
IMC-1 (IL-2 20 ng/mL) [23] | 8.2
KAI3 (IL-2 2.5 ng/mL) [20] | 9.23
KHYG-1 (IL-2 2.5 ng/mL) [27] | 6.72
NK-92 (IL-2 2.5 ng/mL) [16] | 4.12
NK-YS (IL-2 2.5 ng/mL) [24] | 8.97
NKL (IL-2 2.5 ng/mL) [15] | 17.5
SNK-6 (IL-2 2.5 ng/mL) [26] | 12.2
YT (IL-2 2.5 ng/mL) [17] | 1.43
[18] | 8.71
[19] | 4.44
[21] | 3.14
[22] | 2.25
[28] | 6.19
